These results are taken from patent US8637510B2, “Morpholinothiazoles as alpha 7 positive allosteric modulators” (Janssen Pharmaceutica NV, priority 2009, dated 2014).

Data set [1] has as its target T1, human alpha 7-wt nAChR-expressing GH4C1 cells (Homo sapiens, UniProt P36544).
T1 construct: expressed in transfected cells
Briefly: Patch-clamp current recording (whole-cell voltage-clamp, PAM type classification). It counts as cell-based. Details: key: Type 0 compounds minimally change the effect size of the current elicited by 1 mM choline.; Type 1 compounds enhance the effect size of the current elicited by 1 mM choline but minimally alter the kinetics of the receptor.; Type 2 compounds enhance the effect size of the current elicited by 1 mM choline while reducing the rate and/or the extent of desensitization.; Type 3 compounds enhance the effect size of the current elicited by 1 mM choline. When tested at higher concentrations up to 10 μM they completely inhibit desensitization; Type 4 compounds allow for an initial desensitization of the receptor followed by a re-opening of the receptor during agonist application. As to conditions: 1 mM choline. Here is the method:
The compounds of the present invention are classified as type 1-4, based on qualitative kinetic properties, as determined by whole-cell voltage-clamp recordings. This classification is based on the effect of an alpha 7 PAM compound, as described hereinbefore, on the signal elicited by an agonist application. In particular, said agonist is choline at a concentration of 1 mM. In a preferred experimental setting, said alpha 7 PAM compound and choline are simultaneously applied to the cell, as described hereinafter. Desensitization is defined as the closure of the receptor upon activation during the application of the agonist in whole-cell voltage-clamp electrophysiology measurements seen as the reduction of the […] current after initial activation by the agonist.
The definition of the PAM types 1-4 is described hereinafter: • Type 0 compounds minimally change the effect size of the current elicited by 1 mM choline. • Type 1 compounds enhance the effect size of the current elicited by 1 mM choline but minimally alter the kinetics of the receptor. In particular, the rate and the extent of desensitization and of deactivation of the receptor elicited by the agonist is not affected. The compound-modulated response to 1 mM choline, therefore, is close to a linear scaling of the 1 mM choline response in absence of the alpha 7 PAM compound. • Type 2 compounds enhance the effect size of the current elicited by 1 mM choline while reducing the rate and/or the extent of desensitization. Deactivation of the receptor is generally unaffected. • Type 3 compounds enhance the effect size of the current elicited by 1 mM choline. […] Deactivation of the receptor may be slowed down • Type 4 compounds allow for an initial desensitization of the receptor followed by a re-opening of the receptor during agonist application. At low-potency concentrations of the alpha 7 PAM compound, the agonist-induced activation, which is followed by desensitization, can still be separated from the compound-induced re-opening as an initial inward current-maximum. At higher potency concentrations of the alpha 7 PAM compound, the re-opening occurs faster than the closure due to desensitization so that the initial current-maximum disappears.
A compound was considered to have interesting PAM-like activity when the potentiation of the peak current was at least 200% compared to the control choline response (=100%). Such compounds are classified as belonging to a particular PAM type in the Experimental Part. Compounds not meeting the condition are not classified as belonging to a particular PAM-type.
The compounds also have a potentiating effect on the response to choline when measured by whole-cell patch clamp electrophysiology in GH4C1 cells stably over-expressing the human wild-type alpha 7 receptor.
Patch-clamp recording from mammalian cells has provided a powerful means of assessing the function of membrane-bound proteins thought to be subunits of ligand-gated ion channels. Activation of such proteins by endogenous or exogenous ligands cause opening of a pore associated with the receptor through which ions flow down their electrochemical gradient. In the case of the human alpha 7-wt nAChR-expressing GH4C1 recombinant cell line the preferential permeability to calcium of this receptor means that calcium flows into the cell upon activation by ACh, choline and other nicotinic ligands giving rise to a calcium current. Since this receptor rapidly desensitizes in the presence of agonist it is important that an application system is used which is capable of very rapid switching of solutions (<100 ms) to prevent partial or full desensitisation of receptor responses coincident with the time of agonist application. Consequently, a second convenient technique to assess the enhancement of nicotinic efficacy is a patch-clamp recording from human alpha 7-wt nAChR-expressing GH4C1 cells coupled with a rapid-application system. […]

The next data set has as its target T2, human alpha 7-wt nAChR (Homo sapiens, UniProt P36544).
T2 construct: expressed in transfected cells
In words: Ca2+ flux imaging (FDSS) (Protocol B). Particulars: for EC50: potentiation of 100 μM choline, compounds 0.01 μM to 30 μM, read-out: a7-PAM-G_[33]_pEC50 pEC50 (converted); for Emax: read-out: a7-PAM-G_[33]_Eff_Curve_FI % Efficacy. It counts as cell-based. The method in brief: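 PAM activity was measured as FDSS calcium fluorescence in α7-wt nAChR cells loaded with 2 μM Fluo-4AM, with compounds at 0.01–30 μM added alongside or 10 min ahead of sub-maximal 100 μM choline. Peak responses were normalised to choline-only efficacy, and EC50 was taken at half-maximal effect.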
For orientation: Calcium assays in cells follow changes in intracellular calcium, usually with a dye or a luminescent sensor.

[2] abbreviates: efficacy of 100 μM choline defined as 100% in the absence of a PAM.

T2 sequence (P36544 23-502): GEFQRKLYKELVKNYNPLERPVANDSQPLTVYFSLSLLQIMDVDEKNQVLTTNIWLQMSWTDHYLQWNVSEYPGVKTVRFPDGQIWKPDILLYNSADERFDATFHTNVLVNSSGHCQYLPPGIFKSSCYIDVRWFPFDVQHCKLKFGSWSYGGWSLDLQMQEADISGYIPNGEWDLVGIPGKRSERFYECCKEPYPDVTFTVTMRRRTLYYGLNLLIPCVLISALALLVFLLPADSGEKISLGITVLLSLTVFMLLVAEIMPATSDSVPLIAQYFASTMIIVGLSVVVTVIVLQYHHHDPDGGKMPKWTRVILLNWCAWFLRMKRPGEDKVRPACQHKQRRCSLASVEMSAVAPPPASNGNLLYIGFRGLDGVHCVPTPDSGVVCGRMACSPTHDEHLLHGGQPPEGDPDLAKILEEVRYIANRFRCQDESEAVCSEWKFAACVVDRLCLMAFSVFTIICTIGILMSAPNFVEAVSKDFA
T1 sequence (P36544 23-502): as above

Regarding `Cc1cc(-c2sc(N3CC(C)OC(C(F)(F)F)C3)nc2CNC(=O)CC2CC2)cc(C)n1` (racemic) [Compound 202, N-[[5-(2,6-dimethyl-4-pyridinyl)-2-[2-methyl-6-(trifluoromethyl)-4-morpholinyl]-4-thiazolyl]methyl]-cyclopropaneacetamide], the “PAM_Type PAM type” value in data set [1] was found to be 2. Moreover, on human alpha 7-wt nAChR (setting [2]), the “a7-PAM-G_[33]_Eff_Curve_FI % Efficacy” value is on record as 735%. Moreover, on human alpha 7-wt nAChR, the EC50 is 21.4 nM.

`Cc1cc(-c2sc(N3CCOC(C)C3)nc2CNC(=O)c2conc2C)cc(C)n1` (single isomer, unassigned) [Compound 69, N-[[5-(2,6-dimethyl-4-pyridinyl)-2-[(2S*)-2-methyl-4-morpholinyl]-4-thiazolyl]methyl]-3-methyl-4-isoxazolecarboxamide]: the “PAM_Type PAM type” value in data set [1] is reported as 2. Also, the Emax at human alpha 7-wt nAChR (setting [2]) was 645%. The EC50 at human alpha 7-wt nAChR is 955 nM.

For `Cc1cc(-c2sc(N3CCOC(C)C3)nc2CNC(=O)c2conc2C)cc(C)n1` (single isomer, unassigned) [Compound 73, N-[[5-(2,6-dimethyl-4-pyridinyl)-2-[(2R*)-2-methyl-4-morpholinyl]-4-thiazolyl]methyl]-3-methyl-4-isoxazolecarboxamide], the “PAM_Type PAM type” value in data set [1] is 2. Further, on human alpha 7-wt nAChR, the EC50 was 724 nM.

As to `Cc1cc(-c2sc(N3C[C@@H](C)O[C@@H](C)C3)nc2CNC(=O)C2CCC2)cc(C)n1` [Compound 2, N-[[2-[(2R,6S)-2,6-dimethyl-4-morpholinyl]-5-(2,6-dimethyl-4-pyridinyl)-4-thiazolyl]methyl]-cyclobutanecarboxamide], the “PAM_Type PAM type” value in data set [1] came to 2. Moreover, the EC50 at human alpha 7-wt nAChR was 67.6 nM.

For the compound `Cc1cc(-c2sc(N3C[C@@H](C)O[C@@H](C)C3)nc2CNC(=O)c2ccccc2Cl)cc(C)n1` [Compound 5, 2-chloro-N-[[2-[(2R,6S)-2,6-dimethyl-4-morpholinyl]-5-(2,6-dimethyl-4-pyridinyl)-4-thiazolyl]methyl]-benzamide], in data set [1], the “PAM_Type PAM type” value was determined as 2. For the same compound, the Emax on human alpha 7-wt nAChR (setting [2]) was 568%. Moreover, on human alpha 7-wt nAChR, the EC50 is 135 nM.

With `Cc1cc(-c2sc(N3C[C@@H](C)O[C@@H](C)C3)nc2CNC(=O)c2cccc(F)c2)cc(C)n1` [Compound 7, N-[[2-[(2R,6S)-2,6-dimethyl-4-morpholinyl]-5-(2,6-dimethyl-4-pyridinyl)-4-thiazolyl]methyl]-3-fluoro-benzamide], in data set [1], the “PAM_Type PAM type” value was 2. Moreover, the Emax at human alpha 7-wt nAChR (setting [2]) came out at 723%. Besides, on human alpha 7-wt nAChR, the EC50 was 316 nM.

Turning to `Cc1cc(-c2sc(N3C[C@@H](C)O[C@@H](C)C3)nc2CNC(=O)c2ccc(F)cc2)cc(C)n1` [Compound 8, N-[[2-[(2R,6S)-2,6-dimethyl-4-morpholinyl]-5-(2,6-dimethyl-4-pyridinyl)-4-thiazolyl]methyl]-4-fluoro-benzamide], the “PAM_Type PAM type” value in data set [1] was found to be 2. At human alpha 7-wt nAChR (setting [2]), the Emax came to 452%. Further, at human alpha 7-wt nAChR, the EC50 was 457 nM.

With `Cc1cc(-c2sc(N3C[C@@H](C)O[C@@H](C)C3)nc2CNC(=O)c2cccc(Cl)c2)cc(C)n1` [Compound 9, 3-chloro-N-[[2-[(2R,6S)-2,6-dimethyl-4-morpholinyl]-5-(2,6-dimethyl-4-pyridinyl)-4-thiazolyl]methyl]-benzamide], in data set [1], the “PAM_Type PAM type” value stood at 2. On human alpha 7-wt nAChR (setting [2]), the Emax is 566%. Further, at human alpha 7-wt nAChR, the EC50 was 240 nM.

Regarding `Cc1cc(-c2sc(N3C[C@@H](C)O[C@@H](C)C3)nc2CNC(=O)c2ccc(Cl)cc2Cl)cc(C)n1` [Compound 10, 2,4-dichloro-N-[[2-[(2R,6S)-2,6-dimethyl-4-morpholinyl]-5-(2,6-dimethyl-4-pyridinyl)-4-thiazolyl]methyl]-benzamide], the “PAM_Type PAM type” value in data set [1] is given as 2. On human alpha 7-wt nAChR (setting [2]), the Emax stood at 630%. At human alpha 7-wt nAChR, the EC50 is 83.2 nM.

Turning to `Cc1cc(-c2sc(N3C[C@@H](C)O[C@@H](C)C3)nc2CNC(=O)c2ccc(OC(F)(F)F)cc2)cc(C)n1` [Compound 11, N-[[2-[(2R,6S)-2,6-dimethyl-4-morpholinyl]-5-(2,6-dimethyl-4-pyridinyl)-4-thiazolyl]methyl]-4-(trifluoromethoxy)-benzamide], the “PAM_Type PAM type” value in data set [1] is given as 2. The Emax at human alpha 7-wt nAChR (setting [2]) is 703%. In addition, the EC50 at human alpha 7-wt nAChR was 813 nM.

For `Cc1cc(-c2sc(N3C[C@@H](C)O[C@@H](C)C3)nc2CNC(=O)c2cccc(C#N)c2)cc(C)n1` [Compound 12, 3-cyano-N-[[2-[(2R,6S)-2,6-dimethyl-4-morpholinyl]-5-(2,6-dimethyl-4-pyridinyl)-4-thiazolyl]methyl]-benzamide], in data set [1], the “PAM_Type PAM type” value came to 2. Moreover, on human alpha 7-wt nAChR (setting [2]), the Emax is 595%. Further, the EC50 at human alpha 7-wt nAChR is 550 nM.

For `Cc1cc(-c2sc(N3C[C@@H](C)O[C@@H](C)C3)nc2CNC(=O)c2ccc(F)cc2F)cc(C)n1` [Compound 13, N-[[2-[(2R,6S)-2,6-dimethyl-4-morpholinyl]-5-(2,6-dimethyl-4-pyridinyl)-4-thiazolyl]methyl]-2,4-difluoro-benzamide], the “PAM_Type PAM type” value in data set [1] was found to be 2. The Emax at human alpha 7-wt nAChR (setting [2]) stood at 593%. Also, the EC50 on human alpha 7-wt nAChR is 288 nM.

With `Cc1cc(-c2sc(N3C[C@@H](C)O[C@@H](C)C3)nc2CNC(=O)c2ccc(F)c(F)c2F)cc(C)n1` [Compound 14, N-[[2-[(2R,6S)-2,6-dimethyl-4-morpholinyl]-5-(2,6-dimethyl-4-pyridinyl)-4-thiazolyl]methyl]-2,3,4-trifluoro-benzamide], the “PAM_Type PAM type” value in data set [1] amounted to 2. For the same compound, the Emax on human alpha 7-wt nAChR (setting [2]) worked out at 787%. For the same compound, the EC50 at human alpha 7-wt nAChR is 339 nM.

For `Cc1cc(-c2sc(N3C[C@@H](C)O[C@@H](C)C3)nc2CNC(=O)c2cc(F)cc(F)c2)cc(C)n1` [Compound 15, N-[[2-[(2R,6S)-2,6-dimethyl-4-morpholinyl]-5-(2,6-dimethyl-4-pyridinyl)-4-thiazolyl]methyl]-3,5-difluoro-benzamide], the “PAM_Type PAM type” value in data set [1] stood at 2. Besides, the Emax at human alpha 7-wt nAChR (setting [2]) was found to be 411%. Also, the EC50 at human alpha 7-wt nAChR was 170 nM.

For the compound `Cc1cc(-c2sc(N3CC4CCC(C3)O4)nc2CNC(=O)c2cc(C)on2)cc(C)n1` [Compound 210, N-[[5-(2,6-dimethyl-4-pyridinyl)-2-(8-oxa-3-azabicyclo[3.2.1]oct-3-y1)-4-thiazolyl]methyl]-5-methyl-3-isoxazolecarboxamide], the melting point was determined as 206 °C. Further, the Emax at human alpha 7-wt nAChR (setting [2]) worked out at 632%. The EC50 at human alpha 7-wt nAChR is 3980 nM.

Take `Cc1cc(-c2sc(N3CC4CCC(C3)O4)nc2CNC(=O)c2conc2C)cc(C)n1` [Compound 211, N-[[5-(2,6-dimethyl-4-pyridinyl)-2-(8-oxa-3-azabicyclo[3.2.1]oct-3-yl)-4-thiazolyl]methyl]-3-methyl-4-isoxazolecarboxamide]: the melting point came to 94 °C. Moreover, the Emax on human alpha 7-wt nAChR (setting [2]) amounted to 246%. Besides, the EC50 on human alpha 7-wt nAChR is 4900 nM.

One may read the melting point as the temperature, or range, at which the solid turns liquid.
